The results in this text go back to patent publication US4725621A, “CL-1957E antibiotic compound and its production” (priority 1986, dated 1988).

Data set [1] concerns Alcaligenes viscolactis. As to the kind of experiment: antimicrobial activity, broth microdilution (Mueller-Hinton broth). In kind it is cell-based. As to conditions: culture number 21698, read-out: Minimal Inhibitory Concentration (MIC). The procedure: (§1) The antimicrobial activity of CL-1957E was evaluated using the broth microdilution method. Serial dilutions of CL-1957E were made in Muellar-Hinton broth for bacteria and in yeast extract-peptone-dextrose broth for the fungi.
On the technique in general: In broth dilution the organism is exposed to a series of concentrations in liquid medium.

Data set [2] relates to Bacillus cereus. The description is as above. In kind it is cell-based. Particulars: culture number 04810, read-out: Minimal Inhibitory Concentration (MIC). The protocol:
as §1

Data set [3] relates to Bacillus megaterium. Described as above. It counts as cell-based. Particulars: Priestia megaterium; culture number 066; read-out: Minimal Inhibitory Concentration (MIC). The procedure:
as §1

In data set [4] the test system is Branhamella catarrhalis. The description is as above. It counts as cell-based. As to conditions: Moraxella catarrhalis; culture number 03596; read-out: Minimal Inhibitory Concentration (MIC). The protocol:
as §1

Data set [5] relates to Escherichia coli. Described as above. In kind it is cell-based. As to conditions: culture number 04863, read-out: Minimal Inhibitory Concentration (MIC). The procedure: as §1
The subject of data set [6] is Micrococcus luteus. Described as above. Particulars: culture number 05064, read-out: Minimal Inhibitory Concentration (MIC). In kind it is cell-based. The protocol:
as §1

In data set [7] the test system is Pseudomonas aeruginosa. The data set is described as above. As to conditions: culture number 05111, read-out: Minimal Inhibitory Concentration (MIC). It counts as cell-based. The protocol: as §1
Data set [8] deals with Salmonella typhimurium. Described as above. In kind it is cell-based. Particulars: Salmonella enterica, culture number TA1535, read-out: Minimal Inhibitory Concentration (MIC). The protocol: as §1
In data set [9] the test system is Staphylococcus aureus. Described as above. It counts as cell-based. Particulars: culture number 02482, read-out: Minimal Inhibitory Concentration (MIC). The protocol:
as §1

Data set [10] concerns Streptococcus faecalis. The data set is described as above. In kind it is cell-based. As to conditions: Enterococcus faecalis; culture number 05045; read-out: Minimal Inhibitory Concentration (MIC). The procedure:
as §1

For data set [11], the system named is Streptococcus pneumoniae. Described as above. Particulars: culture number SV1, read-out: Minimal Inhibitory Concentration (MIC). It counts as cell-based. The procedure: as §1
Data set [12] relates to Streptococcus pyogenes. Described as above. Particulars: culture number C203, read-out: Minimal Inhibitory Concentration (MIC). It counts as cell-based. The procedure:
as §1

In data set [13] the test system is Mucor parasiticus. As to the kind of experiment: antimicrobial activity, broth microdilution (yeast extract-peptone-dextrose broth). It counts as cell-based. Particulars: culture number M2652, read-out: Minimal Inhibitory Concentration (MIC). The protocol:
as §1

The subject of data set [14] is Rhizopus japonicus. The description is as above. In kind it is cell-based. As to conditions: culture number M1557, read-out: Minimal Inhibitory Concentration (MIC). The protocol:
as §1

Data set [15] relates to Rhodotorula aurantiaca. Described as above. In kind it is cell-based. Particulars: Buckleyzyma aurantiaca; culture number M1508; read-out: Minimal Inhibitory Concentration (MIC). The protocol:
as §1

In data set [16] the test system is Saccharomyces cerevisiae. The data set is described as above. It counts as cell-based. As to conditions: culture number S288, read-out: Minimal Inhibitory Concentration (MIC). The procedure:
as §1

Data set [17] deals with Schizosaccharomyces pombe. The description is as above. It counts as cell-based. As to conditions: culture number M1388, read-out: Minimal Inhibitory Concentration (MIC). The protocol:
as §1

The test system of data set [18] is Torulopsis albida. The description is as above. Particulars: Naganishia albida; culture number M1390; read-out: Minimal Inhibitory Concentration (MIC). In kind it is cell-based. The procedure:
as §1

The subject of data set [19] is P388 leukemia. The data set is described as follows: in vivo activity against P388 leukemia in mice. Particulars: Days 1-5, P388 inoculated intraperitoneally Day 0. The protocol: The in vivo activity of CL-1957E against P388 leukemia in mice was assayed using the protocol established in Cancer Chemotherapy Reports, Vol. 3, Part 3, 1-87 (1972). The results of these tests are presented in Table 7 in terms of %T/C values which are the ratios of mean survival times of treated to control animals, expressed as percentages.

Data set [20] relates to L1210 mouse leukemia cells. The data set is described as follows: in vitro cytotoxicity against L1210 mouse leukemia cells. In kind it is cell-based. Particulars: read-out: ID50 (cytotoxicity). The protocol: (§2) The cytotoxicity of CL-1957E against L1210 mouse leukemia cells and against human colon adenocarcinoma (HCT 8) cells was measured in vitro. The ID50 values appear in Table 8.

The test system of data set [21] is human colon adenocarcinoma (HCT 8) cells. As to the kind of experiment: in vitro cytotoxicity against human colon adenocarcinoma (HCT 8) cells. In kind it is cell-based. As to conditions: read-out: ID50 (cytotoxicity). The protocol: as §2
The nature of data set [22]: solubility in water. In kind it is physicochemical. Particulars: lyophilized triethylammonium salt. The protocol:
A cooled solution of triethylamine (2.45 ml, 0.176 mmol) in 7.55 ml of water is added dropwise with stirring to a solution of 100 mg (0.176 mmol) of CL-1957E in 2.5 ml of methanol. The resulting solution is concentrated to a final volume of about 2 ml on a rotary evaporator and then diluted to 40 ml with water. Two-milliliter aliquots of this solution were added to each of several 6-ml vials.

Values after ≈ are worked out from the molar mass of the structure shown. Structures can show the parent of a compound that is named as a salt. Where only a bound is given, the exact number is not on record here.

For the compound `CC(/C=C/C1OC(=O)C=CC1C)=C\C(C)C/C=C/C(C)=C/C(CO)C(=O)C(C)C(O)C(C)C/C(C)=C/C(=O)O` (stereo not shown) [CL-1957E, 19-(3,6-dihydro-3-methyl-6-oxo-2H-pyran-2-yl)-6-hydroxy-9-(hydroxymethyl)-3,5,7,11,15,17-hexamethyl-8-oxo-2,10,12,16,18-nonadecapentaenoic acid], the MIC in data set [1] was not above 0.46 µg/mL; in data set [2], not above 0.46 µg/mL; in [3], not above 0.46 µg/mL; in data set [4], not above 0.46 µg/mL; in [5], more than 1000 µg/mL; in data set [6], not above 0.46 µg/mL. The MIC in [7] was more than 1000 µg/mL; in data set [8], more than 1000 µg/mL; in data set [9], not above 0.46 µg/mL; in data set [10], not above 0.46 µg/mL; in data set [11], not above 0.46 µg/mL; in data set [12] it was not above 0.46 µg/mL. Further, the MIC was more than 1000 µg/mL in [13]; more than 1000 µg/mL in data set [14]; more than 1000 µg/mL in [15]; more than 1000 µg/mL in data set [16]; 12.3 µg/mL (≈ 22.7 µM) in data set [17]; more than 1000 µg/mL in [18]. Also, the “% T/C (ratio of mean survival times of treated to control animals)” value is given as 130% in data set [19] (25 μg/kg/injection), 139% in [19] (50 μg/kg/injection) and 153% in data set [19] (100 μg/kg/injection). Besides, in data set [19] (200 μg/kg/injection), the “% T/C (entry in words: toxicity)” value is listed as “Toxic”. In addition, the IC50 came out at 0.0034 µg/mL (≈ 0.00626 µM) in data set [20] and 0.001 µg/mL (≈ 0.00184 µM) in [21].
`CC(/C=C/C1OC(=O)C=CC1C)=C\C(C)C/C=C/C(C)=C/C(CO)C(=O)C(C)C(O)C(C)C/C(C)=C/C(=O)O` (stereo not shown) [CL-1957E triethylammonium salt]: the solubility in water entry in data set [22] is recorded as “soluble in water”.
